Measurements published in ChEMBL document CHEMBL4480391, “Discovery and synthesis of sulfur-containing 6-substituted 5,8-dimethoxy-1,4-naphthoquinone oxime derivatives as new and potential anti-MDR cancer agents” (Eur J Med Chem, 2019).
Calls of active or inactive are those of the source. The rule behind the calls is not given here.

How the values were obtained:
HCT-15 [1] = assay: Cytotoxicity against human HCT15 cells after 72 hrs by MTT assay; assay type: functional, cell-based; details: HCT-15, 72 h
MGC-803 [2] = assay: Cytotoxicity against human MGC803 cells after 72 hrs by MTT assay; assay type: functional, cell-based; details: MGC-803, 72 h
K562 [3] = assay: Cytotoxicity against human K562 cells after 72 hrs by MTT assay; assay type: functional, cell-based; details: K562, 72 h
[4] = Cytotoxicity against human HSF cells after 72 hrs by MTT assay; assay type: cell-based
[5] = Selectivity index, ratio of IC50 for human HSF cells to IC50 for human HCT15 cells; assay type: toxicity; details: HSF cells versus HCT15 cells, read-out: Ratio IC50
HCT-15 [6] = assay: Potency index, ratio of shikonin IC50 to test compound IC50 for human HCT15 cells; assay type: functional
MGC-803 [7] = assay: Potency index, ratio of shikonin IC50 to test compound IC50 for human MGC803 cells; assay type: functional
K562 [8] = assay: Potency index, ratio of shikonin IC50 to test compound IC50 for human K562 cells; assay type: functional
[9] = Cytotoxicity against human […] cells after 72 hrs by MTT assay; assay type: functional, cell-based
Bel7402/5-FU [10] = assay: Cytotoxicity against human Bel7402/5-FU cells after 72 hrs by MTT assay; assay type: functional, cell-based
MCF7 = assay: Cytotoxicity against human MCF7 cells after 72 hrs by MTT assay; assay type: functional, cell-based; details: MCF7, 72 h
NCI/ADR-RES = assay: Cytotoxicity against human MCF7/ADR cells after 72 hrs by MTT assay; assay type: functional, cell-based
A549 = assay: Cytotoxicity against human A549 cells after 72 hrs by MTT assay; assay type: functional, cell-based; details: A549, 72 h
A549/TR = assay: Cytotoxicity against human A549/TAX cells after 72 hrs by MTT assay; assay type: functional, cell-based
[11] = Selectivity ratio of IC50 for human […] cells to IC50 for human Bel7402/5-FU cells; assay type: functional
[12] = Selectivity ratio of IC50 for human MCF7 cells to IC50 for human MCF7/ADR cells; assay type: functional
[13] = Selectivity ratio of IC50 for human A549 cells to IC50 for human A549/TAX cells; assay type: functional
Bel7402/5-FU [14] = assay: Inhibition of colony formation in human Bel7402/5-FU cells up to 4 uM measured after 10 days by giemsa staining based assay; assay type: functional, cell-based
Bel7402/5-FU [15] = assay: Cell cycle arrest in human Bel7402/5-FU cells assessed as decrease in accumulation at S phase at 0.25 to 1 uM measured after 24 hrs by propidium iodide staining based flow cytometry; assay type: functional
Bel7402/5-FU [16] = assay: Cell cycle arrest in human Bel7402/5-FU cells assessed as decrease in accumulation at G2/M phase at 0.25 to 1 uM measured after 24 hrs by propidium iodide staining based flow cytometry; assay type: functional
Bel7402/5-FU [17] = assay: Cell cycle arrest in human Bel7402/5-FU cells assessed as accumulation at G1 phase at 0.25 uM measured after 24 hrs by propidium iodide staining based flow cytometry (reference value: 26.32%); assay type: functional
Bel7402/5-FU [18] = assay: Cell cycle arrest in human Bel7402/5-FU cells assessed as accumulation at G1 phase at 0.5 uM measured after 24 hrs by propidium iodide staining based flow cytometry (reference value: 26.32%); assay type: functional
Bel7402/5-FU [19] = assay: Cell cycle arrest in human Bel7402/5-FU cells assessed as accumulation at G1 phase at 1 uM measured after 24 hrs by propidium iodide staining based flow cytometry (reference value: 26.32%); assay type: functional
Bel7402/5-FU [20] = assay: Cell cycle arrest in human Bel7402/5-FU cells assessed as increase in accumulation at G1 phase measured after 24 hrs by propidium iodide staining based flow cytometry; assay type: functional
Bel7402/5-FU [21] = assay: Induction of apoptosis in human Bel7402/5-FU cells assessed as cell shrinkage at 0.5 to 2 uM measured after 24 hrs by Hoechst 33342/propidium iodide staining based fluorescence microscopy; assay type: functional
Bel7402/5-FU [22] = assay: Induction of apoptosis in human Bel7402/5-FU cells assessed as nuclear fragmentation at 0.5 to 2 uM measured after 24 hrs by Hoechst 33342/propidium iodide staining based fluorescence microscopy; assay type: functional, cell-based
Bel7402/5-FU [23] = assay: Induction of apoptosis in human Bel7402/5-FU cells measured after 24 hrs by Annexin V-FITC/propidium iodide staining based flow cytometry; assay type: functional, cell-based
Bel7402/5-FU [24] = assay: Induction of apoptosis in human Bel7402/5-FU cells assessed as viable cells at 0.5 uM measured after 24 hrs by Annexin V-FITC/propidium iodide staining based flow cytometry (reference value: 89%); assay type: functional; details: read-out: Activity
Bel7402/5-FU [25] = assay: Induction of apoptosis in human Bel7402/5-FU cells assessed as early apoptotic cells at 0.5 uM measured after 24 hrs by Annexin V-FITC/propidium iodide staining based flow cytometry (reference value: 2.8%); assay type: functional
Bel7402/5-FU [26] = assay: Induction of apoptosis in human Bel7402/5-FU cells assessed as late apoptotic cells at 0.5 uM measured after 24 hrs by Annexin V-FITC/propidium iodide staining based flow cytometry (reference value: 8.05%); assay type: functional
Bel7402/5-FU [27] = assay: Induction of apoptosis in human Bel7402/5-FU cells assessed as necrotic cells at 0.5 uM measured after 24 hrs by Annexin V-FITC/propidium iodide staining based flow cytometry (reference value: 0.137%); assay type: functional
Bel7402/5-FU [28] = assay: Induction of apoptosis in human Bel7402/5-FU cells assessed as viable cells at 1 uM measured after 24 hrs by Annexin V-FITC/propidium iodide staining based flow cytometry (reference value: 89%); assay type: functional; details: read-out: Activity
Bel7402/5-FU [29] = assay: Induction of apoptosis in human Bel7402/5-FU cells assessed as early apoptotic cells at 1 uM measured after 24 hrs by Annexin V-FITC/propidium iodide staining based flow cytometry (reference value: 2.8%); assay type: functional
Bel7402/5-FU [30] = assay: Induction of apoptosis in human Bel7402/5-FU cells assessed as late apoptotic cells at 1 uM measured after 24 hrs by Annexin V-FITC/propidium iodide staining based flow cytometry (reference value: 8.05%); assay type: functional
Bel7402/5-FU [31] = assay: Induction of apoptosis in human Bel7402/5-FU cells assessed as necrotic cells at 1 uM measured after 24 hrs by Annexin V-FITC/propidium iodide staining based flow cytometry (reference value: 0.137%); assay type: functional
Bel7402/5-FU [32] = assay: Induction of apoptosis in human Bel7402/5-FU cells assessed as viable cells at 2 uM measured after 24 hrs by Annexin V-FITC/propidium iodide staining based flow cytometry (reference value: 89%); assay type: functional; details: read-out: Activity
Bel7402/5-FU [33] = assay: Induction of apoptosis in human Bel7402/5-FU cells assessed as early apoptotic cells at 2 uM measured after 24 hrs by Annexin V-FITC/propidium iodide staining based flow cytometry (reference value: 2.8%); assay type: functional
Bel7402/5-FU [34] = assay: Induction of apoptosis in human Bel7402/5-FU cells assessed as late apoptotic cells at 2 uM measured after 24 hrs by Annexin V-FITC/propidium iodide staining based flow cytometry (reference value: 8.05%); assay type: functional
Bel7402/5-FU [35] = assay: Induction of apoptosis in human Bel7402/5-FU cells assessed as necrotic cells at 2 uM measured after 24 hrs by Annexin V-FITC/propidium iodide staining based flow cytometry (reference value: 0.137%); assay type: functional
Bel7402/5-FU [36] = assay: Induction of apoptosis in human Bel7402/5-FU cells assessed as increase in ratio of Bax/Bcl2 level at 0.5 to 4 uM measured after 24 to 48 hrs by Western blot analysis; assay type: functional, cell-based

CCCCCCCCC(SC(=O)/C=C/c1ccccc1)c1cc(OC)c2c(c1OC)/C(=N/O)C=C/C2=N\O (stereo not drawn)
IC50 (HCT-15 [1]): 380 nM
IC50 (MGC-803 [2]): 790 nM
IC50 (K562 [3]): 460 nM
IC50 [4]: > 50000 nM
selectivity ratio [5]: > 132
Ratio IC50 (HCT-15 [6]): 2
Ratio IC50 (MGC-803 [7]): 2
Ratio IC50 (K562 [8]): 2
IC50 [9]: 420 nM
IC50 (Bel7402/5-FU [10]): 290 nM
IC50 (MCF7): 11100 nM
IC50 (NCI/ADR-RES): 1330 nM
IC50 (A549): 6570 nM
IC50 (A549/TR): 720 nM
Ratio IC50 [11]: 1.45
Ratio IC50 [12]: 8.37
Ratio IC50 [13]: 9.13
inhibition (Bel7402/5-FU [14]): Active
Activity (Bel7402/5-FU [15]): Active
Activity (Bel7402/5-FU [16]): Active
Activity (Bel7402/5-FU [17]): 35.56%
Activity (Bel7402/5-FU [18]): 44.5%
Activity (Bel7402/5-FU [19]): 50.69%
Activity (Bel7402/5-FU [20]): Dose-dependent effect
Activity (Bel7402/5-FU [21]): Active
Activity (Bel7402/5-FU [22]): Active
Activity (Bel7402/5-FU [23]): Dose-dependent effect
viability at 0.5 µM (Bel7402/5-FU [24]): 64.4%
Activity (Bel7402/5-FU [25]): 22.1%
Activity (Bel7402/5-FU [26]): 12.3%
Activity (Bel7402/5-FU [27]): 1.17%
viability at 1 µM (Bel7402/5-FU [28]): 47.9%
Activity (Bel7402/5-FU [29]): 32.2%
Activity (Bel7402/5-FU [30]): 15.2%
Activity (Bel7402/5-FU [31]): 4.64%
viability at 2 µM (Bel7402/5-FU [32]): 10.7%
Activity (Bel7402/5-FU [33]): 58.3%
Activity (Bel7402/5-FU [34]): 29.2%
Activity (Bel7402/5-FU [35]): 1.7%
Activity (Bel7402/5-FU [36]): Active

CCCCCCCCC(SC(=O)c1cc(OC)c(OC)c(OC)c1)c1cc(OC)c2c(c1OC)/C(=N/O)C=C/C2=N\O (stereo not drawn)
IC50 (HCT-15 [1]): 500 nM
IC50 (MGC-803 [2]): 910 nM
IC50 (K562 [3]): 680 nM
IC50 [4]: > 50000 nM
selectivity ratio [5]: > 100
IC50 [9]: 560 nM
IC50 (Bel7402/5-FU [10]): 310 nM
IC50 (MCF7): 14800 nM
IC50 (NCI/ADR-RES): 2470 nM
IC50 (A549): 9280 nM
IC50 (A549/TR): 810 nM
Ratio IC50 [11]: 1.81
Ratio IC50 [12]: 6.01
Ratio IC50 [13]: 11.5

CCCCCCCCC(SC(=O)c1ccc(C)cc1)c1cc(OC)c2c(c1OC)/C(=N/O)C=C/C2=N\O (stereo not drawn)
IC50 (HCT-15 [1]): 530 nM
IC50 (MGC-803 [2]): 940 nM
IC50 (K562 [3]): 970 nM
IC50 [4]: > 50000 nM
selectivity ratio [5]: > 94.3
IC50 [9]: 930 nM
IC50 (Bel7402/5-FU [10]): 760 nM
IC50 (MCF7): 18800 nM
IC50 (NCI/ADR-RES): 3980 nM
IC50 (A549): 13900 nM
IC50 (A549/TR): 1820 nM
Ratio IC50 [11]: 1.22
Ratio IC50 [12]: 4.74
Ratio IC50 [13]: 7.62
